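The compound was tested at five concentrations on cells cultured in 96-well plates, with a 48-hour exposure period. GI50 marks 50% less growth.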 Activity calls are given as the source filed them. No stated cut-off is given here; in the data, active = GI50 up to about 1.1 µM and inactive = higher.
What was measured:
Assay in all cases: inhibition of tumour cell growth, NCI panel, 48 h
A498 = test system: A498
ACHN = test system: ACHN
BT-549 = test system: BT-549
CAKI-1 = test system: CAKI-1
CCRF-CEM = test system: CCRF-CEM
EKVX = test system: EKVX
HCC 2998 = test system: HCC 2998
HOP-92 = test system: HOP-92
IGROV-1 = test system: IGROV-1
M14 = test system: M14
MCF7 = test system: MCF7
MDA-MB-231 = test system: MDA-MB-231
MDA-MB-435 = test system: MDA-MB-435
MDA-N = test system: MDA-N
NCI-H23 = test system: NCI-H23
OVCAR-5 = test system: OVCAR-5
SF-539 = test system: SF-539
SK-MEL-5 = test system: SK-MEL-5
SR = test system: SR
UACC-62 = test system: UACC-62

Measured: GI50

O=C(CCBr)N1CCN(C(=O)CCBr)CC1 [PIPOBROMAN]
inactive: A498 80.7 µM | ACHN 29 µM | BT-549 61.8 µM | CAKI-1 47.9 µM | CCRF-CEM 15.1 µM | EKVX 85.7 µM | HCC 2998 69.3 µM | HOP-92 126 µM | IGROV-1 97.5 µM | M14 57.7 µM | MCF7 52.4 µM | MDA-MB-231 113 µM | MDA-MB-435 105 µM | MDA-N 89.9 µM | NCI-H23 56.4 µM | OVCAR-5 103 µM | SF-539 62.5 µM | SK-MEL-5 64.1 µM | SR 8.04 µM | UACC-62 18 µM

Source: ChEMBL document CHEMBL1201862, “PubChem BioAssay data set” (2004)
